Values quoted from earlier work, collected in patent publication US20020072508A1, “Anti-depressant, stress suppressor and mood improver” (LIPOGEN LTD., priority 2000, published 2002).

System: withdrawal symptoms associated with addiction (cigarettes, alcohol, narcotics)

## phosphatidic acid
  withdrawal symptoms associated with addiction: alleviate withdrawal symptoms
